In patent publication US7939531B2, “Pyrrolopyrazine kinase inhibitors” (Roche Palo Alto, priority 2008, dated 2011) one finds melting point and IC50 data, which are given here for 27 compounds.

The target in series [1] is JAK3: Recombinant human kinase domain (Homo sapiens, UniProt P52333). Briefly: Determination of IC50 of Janus Kinase (JAK) Inhibition (radioactive end-point 33P-ATP kinase assay).
Procedure: Assay conditions used are described below: • Assay Buffer: JAK Kinase Buffer: 50 mM Hepes [pH 7.2], 10 mM MgCl2, 1 mM DTT, 1 mg/ml BSA. The assay is carried out in this buffer. • Assay Format The kinase activity of all three JAK kinases is measured using a radioactive, end-point assay and with trace amounts of ^33P-ATP. The assays are carried out in 96-well polypropylene plates.
All concentrations are final in the reaction mixture and all incubations are carried at room temperature. […] Final concentration of DMSO in the reaction is 10%. • 2) Compounds are preincubated with enzyme (0.5 nM JAK3 (commercially available), 0.2 nM JAK3 (prepared), 1 nM JAK2, 5 nM JAK1) for 10 minutes. • 3) Reactions are initiated by the addition of a cocktail of the two substrates (ATP and peptide premixed in the JAK Kinase Buffer). […] JAK1 assay is carried out at an ATP concentration of 10 uM and a peptide concentration of 50 uM. • 4) The duration of the assay for JAK2 and JAK3 is 20 minutes. JAK1 assay is carried out for 40 minutes. With all three enzymes, reactions are terminated by the addition of 0.5M EDTA to a final concentration of 100 mM. • 5) 25 ul of terminated reactions are transferred to 150 ul of a 7.5% (v/v) slurry of streptavidin-coated sepharose beads in MgCl2- and CaCl2-free 1× Phosphate Buffered Saline containing 50 mM of EDTA in 96-well, 1.2 um MultiScreen-BV filter plates. • 6) After a 30-minute incubation, the beads are washed under vacuum with the following buffers: • a. 3 to 4 washes with 200 ul of 2M NaCl. • b. 3 to 4 washes with 200 ul of 2M NaCl plus 1% (v/v) phosphoric acid. • c. 1 wash with water. • 7) Washed plates are dried in a 60° C. oven for between 1 to 2 hours. • 8) 70 ul of Microscint 20 scintillation fluid is added to each well of filter plates and after at least 30 minutes of incubation, radioactive counts are measured in a Perkinelmer microplate scintillation counter.

Where a name gives a salt, the structure may show the parent alone.

Chain of JAK3: Recombinant human kinase domain (P52333 822-1111 limits assumed): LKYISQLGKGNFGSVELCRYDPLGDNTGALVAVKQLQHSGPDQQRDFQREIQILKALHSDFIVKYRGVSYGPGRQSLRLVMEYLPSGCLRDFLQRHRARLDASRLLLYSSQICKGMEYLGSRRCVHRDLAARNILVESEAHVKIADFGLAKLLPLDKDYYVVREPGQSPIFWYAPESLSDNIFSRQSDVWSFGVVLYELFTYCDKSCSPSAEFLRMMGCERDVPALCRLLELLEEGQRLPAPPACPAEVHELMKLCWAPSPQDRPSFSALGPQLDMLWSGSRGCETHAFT

As for `CCC(CC)NC(=O)c1cc(-c2cnc3[nH]cc(C(=O)C4(C)CCCCC4)c3n2)cs1` (as salt: hydrochloride) [Compound I-43, 4-[7-(1-Methyl-cyclohexanecarbonyl)-5H-pyrrolo[2,3-b]pyrazin-2-yl]-thiophene-2-carboxylic acid (1-ethyl-propyl)-amide], the melting point (in general, the temperature, or range, at which the solid turns liquid) is 273 to 275 °C. `CC(C)(C)C(=O)c1c[nH]c2ncc(-c3cn(S(=O)(=O)c4ccccc4)c4ccccc34)nc12` [Compound I-1, 1-[2-(1-Benzenesulfonyl-1H-indol-3-yl)-5H-pyrrolo[2,3-b]pyrazin-7-yl]-2,2-dimethyl-propan-1-one]: the melting point fell in the range of 267 to 268 °C. `CC(=O)N1CCN(c2cc(-c3cnc4[nH]cc(C(=O)C(C)(C)C)c4n3)ccn2)CC1` [Compound I-5, 1-{2-[2-(4-Acetyl-piperazin-1-yl)-pyridin-4-yl]-5H-pyrrolo[2,3-b]pyrazin-7-yl}-2,2-dimethyl-propan-1-one] gave a melting point of 257 to 260 °C. Consider `COc1cncc(-c2cnc3[nH]cc(C(=O)C(C)(C)C)c3n2)c1` [Compound I-6, 1-[2-(5-Methoxy-pyridin-3-yl)-5H-pyrrolo[2,3-b]pyrazin-7-yl]-2,2-dimethyl-propan-1-one], for which the melting point lay in the range of 215 to 223.6 °C. Compound `CC(C)NC(=O)c1c[nH]c2ncc(N3CCCC(N(C)C(=O)OC(C)(C)C)C3)nc12` (stereo not drawn) [Compound I-7, [1-(7-Isopropylcarbamoyl-5H-pyrrolo[2,3-b]pyrazin-2-yl)-piperidin-3-yl]-methyl-carbamic acid tert-butyl ester] showed a melting point of 251 to 252 °C. As for `CNC1CCCN(c2cnc3[nH]cc(C(=O)NC(C)C)c3n2)C1` (stereo not drawn) [Compound I-8, 2-(3-Methylamino-piperidin-1-yl)-5H-pyrrolo[2,3-b]pyrazine-7-carboxylic acid isopropylamide; compound with trifluoro-acetic acid], the melting point was in the range of 54 to 64 °C. Consider `CC(C)(C)C(=O)c1c[nH]c2ncc(-c3ccnc(N4CCCC4)c3)nc12` [Compound I-11, 2,2-Dimethyl-1-[2-(2-pyrrolidin-1-yl-pyridin-4-yl)-5H-pyrrolo[2,3-b]pyrazin-7-yl]-propan-1-one], for which the melting point lay within 275.1 to 276.4 °C. Still for that read-out and setting: for `CC(C)(C)C(=O)c1c[nH]c2ncc(-c3cn(C4CCCC4)nn3)nc12` [Compound I-12, 1-[2-(1-Cyclopentyl-1H-[1,2,3]triazol-4-yl)-5H-pyrrolo[2,3-b]pyrazin-7-yl]-2,2-dimethyl-propan-1-one] the value was 193.3 to 199.3 °C. `CC(C)(C)C(=O)c1c[nH]c2ncc(-c3ccnc(N4CCCCC4)c3)nc12` [Compound I-13, 2,2-Dimethyl-1-[2-(3,4,5,6-tetrahydro-2H-[1,2′]bipyridinyl-4′-yl)-5H-pyrrolo[2,3-b]pyrazin-7-yl]-propan-1-one] came in with a melting point of 250 to 251 °C. As to `CN(C)C1CCN(c2cc(-c3cnc4[nH]cc(C(=O)C(C)(C)C)c4n3)ccn2)C1` (stereo not drawn) [Compound I-14, 1-{2-[2-(3-Dimethylamino-pyrrolidin-1-yl)-pyridin-4-yl]-5H-pyrrolo[2,3-b]pyrazin-7-yl}-2,2-dimethyl-propan-1-one], the melting point is 226 to 228 °C. `CC(C)(C)C(=O)c1c[nH]c2ncc(-c3ccnc(N4CCSCC4)c3)nc12` [Compound I-15, 2,2-Dimethyl-1-[2-(2-thiomorpholin-4-yl-pyridin-4-yl)-5H-pyrrolo[2,3-b]pyrazin-7-yl]-propan-1-one] gave a melting point of 287 to 290 °C. Turning to `CC1CCCN1c1cc(-c2cnc3[nH]cc(C(=O)C(C)(C)C)c3n2)ccn1` (stereo not drawn) [Compound I-16, 2,2-Dimethyl-1-{2-[2-(2-methyl-pyrrolidin-1-yl)-pyridin-4-yl]-5H-pyrrolo[2,3-b]pyrazin-7-yl}-propan-1-one], the melting point is 220 to 221 °C. The compound `CC(C)(C)C(=O)c1c[nH]c2ncc(-c3ccc(C(=O)NC4CCCC4)s3)nc12` [Compound I-31, 5-[7-(2,2-Dimethyl-propionyl)-5H-pyrrolo[2,3-b]pyrazin-2-yl]-thiophene-2-carboxylic acid cyclopentylamide] registered a melting point greater than 300 °C.

For the compound `CC(C)(C)C(=O)c1c[nH]c2ncc(-c3ccc(C(=O)NC4CCOCC4)s3)nc12` [Compound I-32, 5-[7-(2,2-Dimethyl-propionyl)-5H-pyrrolo[2,3-b]pyrazin-2-yl]-thiophene-2-carboxylic acid (tetrahydro-pyran-4-yl)-amide], the melting point is greater than 300 °C. `CC(C)(C)C(=O)c1c[nH]c2ncc(C3=C(c4ccccc4)CCC3)nc12` [Compound I-38, 2,2-Dimethyl-1-[2-(2-phenyl-cyclopent-1-enyl)-5H-pyrrolo[2,3-b]pyrazin-7-yl]-propan-1-one] came in with a melting point of 207 to 209 °C. With `CCOC(=O)c1cc2cc(C3=C(c4cnc5[nH]cc(C(=O)C(C)(C)C)c5n4)CCC3)ccc2[nH]1` [Compound I-39, 5-{2-[7-(2,2-Dimethyl-propionyl)-5H-pyrrolo[2,3-b]pyrazin-2-yl]-cyclopent-1-enyl}-1H-indole-2-carboxylic acid ethyl ester], the melting point was 278 to 280 °C. For `CN(CC#N)C(=O)c1cc(-c2cnc3[nH]cc(C(=O)C4(C)CCCCC4)c3n2)cs1` [Compound I-40, 4-[7-(1-Methyl-cyclohexanecarbonyl)-5H-pyrrolo[2,3-b]pyrazin-2-yl]-thiophene-2-carboxylic acid cyanomethyl-methyl-amide], the IC50 (as a rule, the concentration that gives 50% inhibition) in series [1] stood at 44.7 nM. For `CN(CCO)C(=O)c1ccc(-c2cnc3[nH]cc(C(=O)C4(C)CCCCC4)c3n2)s1` [Compound I-73, 5-[7-(1-Methyl-cyclohexanecarbonyl)-5H-pyrrolo[2,3-b]pyrazin-2-yl]-thiophene-2-carboxylic acid (2-hydroxy-ethyl)-methyl-amide], the IC50 in series [1] stood at 18 nM. Turning to `CC1(C(=O)c2c[nH]c3ncc(-c4ccc(C(=O)N5CCC(O)C5)s4)nc23)CCCCC1` (stereo not drawn) [Compound I-74, {2-[5-(3-Hydroxy-pyrrolidine-1-carbonyl)-thiophen-2-yl]-5H-pyrrolo[2,3-b]pyrazin-7-yl}-(1-methyl-cyclohexyl)-methanone], the IC50 in series [1] is 28.3 nM. As for `CC(C)(C)C(=O)c1c[nH]c2ncc(-n3ccc4ccccc43)nc12` [Compound I-97, 1-(2-Indol-1-yl-5H-pyrrolo[2,3-b]pyrazin-7-yl)-2,2-dimethyl-propan-1-one], the melting point lay within 205 to 207 °C. On to `CC(C)(C)C(=O)c1c[nH]c2ncc(-c3cn(Cc4ccccc4)nn3)nc12` [Compound I-105, 1-[2-(1-Benzyl-1H-[1,2,3]triazol-4-yl)-5H-pyrrolo[2,3-b]pyrazin-7-yl]-2,2-dimethyl-propan-1-one], for which the melting point fell in the range of 235 to 237 °C. `CC1(C(=O)c2c[nH]c3ncc(-c4cccs4)nc23)CCCCC1` [Compound I-106, (1-Methyl-cyclohexyl)-(2-thiophen-2-yl-5H-pyrrolo[2,3-b]pyrazin-7-yl)-methanone] gave a melting point of 224 to 225 °C. For the compound `CC(C)(C)C(=O)c1c[nH]c2ncc(-n3ccnc3)nc12` [Compound I-107, 1-(2-Imidazol-1-yl-5H-pyrrolo[2,3-b]pyrazin-7-yl)-2,2-dimethyl-propan-1-one], the melting point was in the range of 215 to 217 °C.

Regarding `Cc1nccn1-c1cnc2[nH]cc(C(=O)C(C)(C)C)c2n1` [Compound I-108, 2,2-Dimethyl-1-[2-(2-methyl-imidazol-1-yl)-5H-pyrrolo[2,3-b]pyrazin-7-yl]-propan-1-one], the melting point lay within 247 to 249 °C. For `CC1=NCCN1c1cnc2[nH]cc(C(=O)C(C)(C)C)c2n1` [Compound I-109, 2,2-Dimethyl-1-[2-(2-methyl-4,5-dihydro-imidazol-1-yl)-5H-pyrrolo[2,3-b]pyrazin-7-yl]-propan-1-one], the melting point lay within 235 to 236 °C. The same measure, in the same setting: then `CCc1nccn1-c1cnc2[nH]cc(C(=O)C(C)(C)C)c2n1` [Compound I-110, 1-[2-(2-Ethyl-imidazol-1-yl)-5H-pyrrolo[2,3-b]pyrazin-7-yl]-2,2-dimethyl-propan-1-one], with 276 to 278 °C. `CC(C)(C)C(=O)c1c[nH]c2ncc(-c3cncs3)nc12` [Compound I-121, 2,2-Dimethyl-1-(2-thiazol-5-yl-5H-pyrrolo[2,3-b]pyrazin-7-yl)-propan-1-one] returned a melting point of 281 to 282 °C.
